# From PubChem BioAssay AID296 (DTP/NCI, 2004)
# Where “and” joins values, the source holds several entries; their conditions need not be identical. Identical values can stand only once. Results filed as inconclusive are left out.
# Tested on: MX-1 breast xenograft, nude mice, tumor weight T/C
# Assay: NCI In Vivo Anticancer Drug Screen. Data for tumor model Human Mammary Carcinoma MX-1 Xenograft (intrarenal inoculation) in NU/NU Swiss (nude) mice
# Settings: endpoint: mean tumor weight change, higher = larger tumour
# Method in brief: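 Antitumour effect measured in vivo against vehicle controls, expressed as T/C.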
# [1] = dose: 100.0 mg/kg/injection, schedule: Q01DX010 (sc), vehicle: saline
# [2] = dose: 400.0 mg/kg/injection, schedule: Q01DX010 (sc), vehicle: saline
smiles,measurement,setting,value
CN1CCN(c2ccc3nc(-c4ccc5nc(-c6ccc(O)cc6)[nH]c5c4)[nH]c3c2)CC1,T/C,"dose: 100.0 mg/kg/injection, schedule: Q04DX003 (sc), vehicle: saline",69 % of control
same,T/C,"dose: 225.0 mg/kg/injection, schedule: Q04DX003 (sc), vehicle: saline",100 % of control
same,T/C,"dose: 225.0 mg/kg/injection, schedule: Q04DX003 (sc), vehicle: suspension in saline",102 % of control
same,T/C,"dose: 250.0 mg/kg/injection, schedule: Q04DX003 (sc), vehicle: suspension in saline",67 % of control
same,T/C,"dose: 400.0 mg/kg/injection, schedule: Q04DX003 (sc), vehicle: saline",52 % of control
same,T/C,"dose: 500.0 mg/kg/injection, schedule: Q04DX003 (sc), vehicle: saline",123 % of control
same,T/C,"dose: 800.0 mg/kg/injection, schedule: Q04DX003 (sc), vehicle: suspension in saline",176 % of control
same,T/C,"dose: 1000.0 mg/kg/injection, schedule: Q04DX003 (sc), vehicle: saline",69 % of control
same,T/C,"dose: 1000.0 mg/kg/injection, schedule: Q04DX003 (sc), vehicle: suspension in saline",199 % of control
COc1ccc2c(c1[N+](=O)[O-])CC[C@@H]1[C@@H]2CC[C@]2(C)C(=O)CC[C@@H]12,T/C,"dose: 150.0 mg/kg/injection, schedule: Q04DX003 (ip), vehicle: saline with Tween-80",90 % of control
same,T/C,"dose: 300.0 mg/kg/injection, schedule: Q04DX003 (ip), vehicle: saline with Tween-80",111 % of control
same,T/C,"dose: 1200.0 mg/kg/injection, schedule: Q04DX003 (ip), vehicle: saline with Tween-80",102 % of control
O=Cc1ccccc1,T/C,"dose: 200.0 mg/kg/injection, schedule: Q04DX003 (sc), vehicle: Klucel (hydroxypropylcellulose) (HPC)",96 % of control
same,T/C,"dose: 400.0 mg/kg/injection, schedule: Q04DX003 (sc), vehicle: Klucel (hydroxypropylcellulose) (HPC)",92 % of control
same,T/C,"dose: 800.0 mg/kg/injection, schedule: Q04DX003 (sc), vehicle: Klucel (hydroxypropylcellulose) (HPC)",85 % of control
CCOC(=O)c1c[nH]c2oc(/C=N/N3CC(CN4CCOCC4)OC3=O)cc2c1=O (stereo not drawn),T/C,"dose: 50.0 mg/kg/injection, schedule: Q01DX010 (sc), vehicle: saline",116 % of control
same,T/C,[1],77 % of control
same,T/C,"dose: 200.0 mg/kg/injection, schedule: Q01DX010 (sc), vehicle: saline",98 % of control
same,T/C,[2],72 % of control
CNNCc1ccc(C(=O)NC(C)C)cc1,T/C,[1],57 % of control and 69 % of control
same,T/C,[2],7 % of control
CC(=O)Oc1ccc[nH]c1=O,T/C,"dose: 200.0 mg/kg/injection, schedule: Q04DX003 (sc), vehicle: saline with Tween-80",111 % of control
same,T/C,"dose: 400.0 mg/kg/injection, schedule: Q04DX003 (sc), vehicle: saline with Tween-80",100 % of control
same,T/C,"dose: 800.0 mg/kg/injection, schedule: Q04DX003 (sc), vehicle: saline with Tween-80",114 % of control
C1CCC2C[N-]CCC2C1.C1CCC2C[N-]CCC2C1.C1CCC2C[N-]CCC2C1.C1CCC2C[N-]CCC2C1.[Cl][Rh][Cl] (stereo not drawn),T/C,"dose: 18.0 mg/kg/injection, schedule: Q04DX003 (sc), vehicle: saline with Tween-80",107 % of control
same,T/C,"dose: 36.0 mg/kg/injection, schedule: Q04DX003 (sc), vehicle: saline with Tween-80",103 % of control
same,T/C,"dose: 72.0 mg/kg/injection, schedule: Q04DX003 (sc), vehicle: saline with Tween-80",86 % of control
same,T/C,"dose: 144.0 mg/kg/injection, schedule: Q04DX003 (sc), vehicle: saline with Tween-80",78 % of control
CC1=C(/C=C/C(C)=C/C=C/C(C)=C/C(=O)O)C(C)(C)CCC1,T/C,"dose: 25.0 mg/kg/injection, schedule: Q01DX010 (sc), vehicle: saline with Tween-80",86 % of control
same,T/C,"dose: 50.0 mg/kg/injection, schedule: Q01DX010 (sc), vehicle: saline with Tween-80",58 % of control
same,T/C,"dose: 100.0 mg/kg/injection, schedule: Q01DX010 (sc), vehicle: saline with Tween-80",52 % of control
CCN(CC)c1ccc2cc(-c3nc4ccccc4n3C)c(=O)oc2c1,T/C,"dose: 75.0 mg/kg/injection, schedule: Q04DX003 (sc), vehicle: Klucel (hydroxypropylcellulose) (HPC)",119 % of control
same,T/C,"dose: 150.0 mg/kg/injection, schedule: Q04DX003 (sc), vehicle: Klucel (hydroxypropylcellulose) (HPC)",104 % of control
same,T/C,"dose: 300.0 mg/kg/injection, schedule: Q04DX003 (sc), vehicle: Klucel (hydroxypropylcellulose) (HPC)",123 % of control
ClC(Cl)(Cl)C1=NCc2nnn(Cc3ccccc3)c2N1,T/C,"dose: 300.0 mg/kg/injection, schedule: Q04DX003 (sc), vehicle: saline with Tween-80",92 % of control
same,T/C,"dose: 600.0 mg/kg/injection, schedule: Q04DX003 (sc), vehicle: saline with Tween-80",61 % of control
same,T/C,"dose: 1200.0 mg/kg/injection, schedule: Q04DX003 (sc), vehicle: saline with Tween-80",66 % of control
same,T/C,"dose: 2400.0 mg/kg/injection, schedule: Q04DX003 (sc), vehicle: saline with Tween-80",101 % of control
